Patent US9096494B2, “Arachidonic acid analogs and methods for analgesic treatment using same” (priority 2009, dated 2015)

What was measured:
TRPV1(VR1) agonist = target: T1, TRPV1(VR1) agonist (Rattus norvegicus, UniProt O35433); experiment: Cerep BioPrint receptor binding
T1 construct: Cerep (contract screen)

Glutamate/PCP = experiment: Cerep BioPrint dependence and addiction panel; format: binding
Glutamate/AMPA = experiment: Cerep BioPrint dependence and addiction panel; format: binding
ATPase/ATPase(Na+/K+) = experiment: Cerep BioPrint dependence and addiction panel (enzyme); format: biochemical
[1] = target: T2, Serotonin/5HT transporter (Homo sapiens, UniProt P31645); experiment: Cerep BioPrint dependence and addiction panel; format: binding
T2 construct: Cerep (contract screening panel)

[2] = LC/MS pharmacokinetics of CMX-020 in mice (plasma, brain, liver); settings: 15 min timepoint, 10 mg/kg iv, n=2 individual values
mice = experiment: Writhing assay in mouse (bolus and continuous infusion); format: in vivo
A3 agonist-Adenosine A3 = target: T3, A3 agonist-Adenosine A3 (Homo sapiens, UniProt P0DMS8); experiment: Cerep BioPrint receptor binding
T3 construct: Cerep (contract screen)

Dopamine/D3 = Dopamine/D3 (Homo sapiens, UniProt P35462); experiment: Cerep BioPrint dependence and addiction panel; format: binding
[3] = target: T4, Dopamine/dopamine transporter (Homo sapiens, UniProt Q01959); experiment: Cerep BioPrint dependence and addiction panel; format: binding
T4 construct: Cerep (contract screening panel)

[4] = target: CL-Channel (GABA gated) antagonist; experiment: Cerep BioPrint receptor binding
Melanocortin/MC4 = target: T5, Melanocortin/MC4 (Homo sapiens, UniProt P32245); experiment: Cerep BioPrint dependence and addiction panel; format: binding
T5 construct: Cerep (contract screen)

GABA/GABAA = experiment: Cerep BioPrint dependence and addiction panel; format: binding
[5] = CMX-020 Injectable Emulsion, from mouse writhing assay
[6] = continuous infusion, from mouse writhing assay

T1 sequence (O35433 whole entry): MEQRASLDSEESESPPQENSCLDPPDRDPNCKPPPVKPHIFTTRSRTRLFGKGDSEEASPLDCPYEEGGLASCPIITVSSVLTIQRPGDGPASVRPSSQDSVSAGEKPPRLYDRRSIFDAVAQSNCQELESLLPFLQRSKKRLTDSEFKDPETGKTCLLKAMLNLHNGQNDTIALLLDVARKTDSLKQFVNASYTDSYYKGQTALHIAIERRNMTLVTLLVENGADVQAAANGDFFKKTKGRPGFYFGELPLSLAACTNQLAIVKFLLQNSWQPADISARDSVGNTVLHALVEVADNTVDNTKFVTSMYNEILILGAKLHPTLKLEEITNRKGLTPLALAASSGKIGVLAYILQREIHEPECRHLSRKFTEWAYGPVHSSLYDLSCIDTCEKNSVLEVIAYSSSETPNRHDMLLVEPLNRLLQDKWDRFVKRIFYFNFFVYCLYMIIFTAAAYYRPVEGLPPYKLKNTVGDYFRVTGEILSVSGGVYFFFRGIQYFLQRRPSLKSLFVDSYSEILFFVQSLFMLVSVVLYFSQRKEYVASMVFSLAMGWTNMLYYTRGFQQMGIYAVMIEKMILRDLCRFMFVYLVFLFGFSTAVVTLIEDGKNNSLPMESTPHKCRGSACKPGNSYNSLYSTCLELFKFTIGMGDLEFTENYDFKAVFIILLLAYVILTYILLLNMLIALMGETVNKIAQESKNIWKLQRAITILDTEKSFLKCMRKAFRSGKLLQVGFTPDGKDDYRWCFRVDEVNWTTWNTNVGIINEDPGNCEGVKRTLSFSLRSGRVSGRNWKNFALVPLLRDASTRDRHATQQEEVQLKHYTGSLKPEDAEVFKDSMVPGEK
T3 sequence (P0DMS8 whole entry): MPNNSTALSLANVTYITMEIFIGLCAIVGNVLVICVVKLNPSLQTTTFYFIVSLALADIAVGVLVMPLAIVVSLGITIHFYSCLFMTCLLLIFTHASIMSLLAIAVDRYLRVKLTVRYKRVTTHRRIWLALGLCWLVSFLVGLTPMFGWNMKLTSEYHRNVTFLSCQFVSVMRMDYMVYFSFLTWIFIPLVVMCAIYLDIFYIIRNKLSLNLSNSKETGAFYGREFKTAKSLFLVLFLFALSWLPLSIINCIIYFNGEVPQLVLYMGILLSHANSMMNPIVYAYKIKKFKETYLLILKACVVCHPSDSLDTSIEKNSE
T5 sequence (P32245 whole entry): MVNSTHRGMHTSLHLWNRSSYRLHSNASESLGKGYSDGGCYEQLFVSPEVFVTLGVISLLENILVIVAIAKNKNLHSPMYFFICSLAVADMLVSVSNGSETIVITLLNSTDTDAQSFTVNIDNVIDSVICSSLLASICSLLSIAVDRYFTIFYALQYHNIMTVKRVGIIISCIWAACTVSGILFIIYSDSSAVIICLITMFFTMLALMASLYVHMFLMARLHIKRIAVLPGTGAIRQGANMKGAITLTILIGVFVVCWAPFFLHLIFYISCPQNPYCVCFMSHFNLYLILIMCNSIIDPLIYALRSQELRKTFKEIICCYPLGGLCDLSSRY
Chain of Dopamine/D3 (P35462 whole entry): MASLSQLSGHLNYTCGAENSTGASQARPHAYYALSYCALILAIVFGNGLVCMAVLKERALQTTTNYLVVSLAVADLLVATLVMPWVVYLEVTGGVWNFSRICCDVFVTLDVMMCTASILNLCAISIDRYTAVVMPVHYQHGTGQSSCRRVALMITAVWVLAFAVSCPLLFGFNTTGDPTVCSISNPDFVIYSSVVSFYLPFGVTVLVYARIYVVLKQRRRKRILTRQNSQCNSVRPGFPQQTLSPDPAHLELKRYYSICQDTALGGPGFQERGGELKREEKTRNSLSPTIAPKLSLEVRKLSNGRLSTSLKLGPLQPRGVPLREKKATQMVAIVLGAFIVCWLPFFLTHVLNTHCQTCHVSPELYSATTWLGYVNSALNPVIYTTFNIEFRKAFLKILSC
T2 sequence (P31645 whole entry): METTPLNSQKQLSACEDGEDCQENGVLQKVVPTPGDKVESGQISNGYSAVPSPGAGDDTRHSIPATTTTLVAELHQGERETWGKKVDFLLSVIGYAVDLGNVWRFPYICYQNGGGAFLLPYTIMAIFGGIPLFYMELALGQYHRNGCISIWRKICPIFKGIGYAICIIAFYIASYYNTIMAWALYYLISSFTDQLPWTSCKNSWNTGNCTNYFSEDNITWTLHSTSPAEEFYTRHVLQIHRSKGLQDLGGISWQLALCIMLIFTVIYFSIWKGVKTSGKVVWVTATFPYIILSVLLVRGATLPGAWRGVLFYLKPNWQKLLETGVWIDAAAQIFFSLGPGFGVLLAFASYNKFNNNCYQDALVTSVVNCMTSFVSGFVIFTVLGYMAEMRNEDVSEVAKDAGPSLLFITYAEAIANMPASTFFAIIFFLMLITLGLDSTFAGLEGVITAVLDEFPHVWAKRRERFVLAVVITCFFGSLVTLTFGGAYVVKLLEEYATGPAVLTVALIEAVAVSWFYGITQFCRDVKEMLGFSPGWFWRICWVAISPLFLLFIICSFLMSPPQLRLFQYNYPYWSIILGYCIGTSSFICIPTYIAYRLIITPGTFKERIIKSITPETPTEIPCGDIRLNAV
T4 sequence (Q01959 whole entry): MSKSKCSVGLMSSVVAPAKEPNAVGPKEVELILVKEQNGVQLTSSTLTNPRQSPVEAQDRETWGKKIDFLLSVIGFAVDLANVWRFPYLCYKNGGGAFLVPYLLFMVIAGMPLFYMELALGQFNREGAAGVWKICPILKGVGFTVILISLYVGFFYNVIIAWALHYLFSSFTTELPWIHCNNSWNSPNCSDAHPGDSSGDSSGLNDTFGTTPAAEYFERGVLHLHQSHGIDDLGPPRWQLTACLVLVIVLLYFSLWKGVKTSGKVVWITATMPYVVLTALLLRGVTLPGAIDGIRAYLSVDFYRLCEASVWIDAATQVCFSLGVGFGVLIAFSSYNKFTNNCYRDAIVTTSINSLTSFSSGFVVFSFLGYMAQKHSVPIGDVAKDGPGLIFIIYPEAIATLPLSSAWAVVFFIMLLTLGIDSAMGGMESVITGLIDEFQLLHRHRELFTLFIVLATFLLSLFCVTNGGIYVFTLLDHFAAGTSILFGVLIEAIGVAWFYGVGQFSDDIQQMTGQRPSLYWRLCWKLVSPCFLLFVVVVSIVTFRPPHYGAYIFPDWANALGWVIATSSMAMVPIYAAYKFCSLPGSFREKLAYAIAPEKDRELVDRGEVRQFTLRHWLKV

CCCCCC(=O)N(CC/C=C\C/C=C\C/C=C\CCCC(=O)NC1CC1)C(C)C [CMX-020]
IC50 (TRPV1(VR1) agonist): 7.5 µM
% Inhibition @10 uM (TRPV1(VR1) agonist; TRPV1(VR1) agonist, 10 uM): 59%
% Inhibition @10 uM (Glutamate/PCP): −6%
% Inhibition @10 uM (Glutamate/AMPA): 9%
% Inhibition @10 uM (ATPase/ATPase(Na+/K+)): 12%
inhibition at 10 µM [1]: 10%
amount present in brain [2]: 843 ng/g tissue
amount present in liver [2]: 211 ng/g tissue
continuous infusion dose producing roughly the same level of analgesia (roughly 50% MPE), writhing assay (mice; 24 hour infusion by Alzet pump, measured at 3 hours and 20 hours, preliminary): 2 mg/kg/h
analgesic response compared with Perfalgan 12.5 mg/kg, writhing assay (mice; CMX-020 0.05 mg/kg): higher analgesic response than Perfalgan
Analgesic Equivalent to Acetaminophen 2x, Bolus dose (mice; [5]): 0.02 mg/kg
Analgesic Equivalent to Acetaminophen 3x, Bolus dose (mice; [5]): 0.04 mg/kg
time over which analgesic levels are sustained by continuous infusion (mice; continuous infusion in mice): 24 h
Analgesic Equivalent to Acetaminophen 1x, Maintenance dose (mice; [6]): 0.08 mg/kg/h
Analgesic Equivalent to Acetaminophen 2x, Maintenance dose (mice; [6]): 0.16 mg/kg/h
Analgesic Equivalent to Acetaminophen 3x, Maintenance dose (mice; [6]): 0.32 mg/kg/h
Analgesic Equivalent to Acetaminophen 1x, Bolus dose (mice; for a 70 kg human): 0.6 mg
Analgesic Equivalent to Acetaminophen 1x, Maintenance dose (mice; for a 70 kg human): 6 mg/h
Analgesic Equivalent to Acetaminophen 2x, Bolus dose (mice; for a 70 kg human): 1.4 mg
Analgesic Equivalent to Acetaminophen 2x, Maintenance dose (mice; for a 70 kg human): 11 mg/h
Analgesic Equivalent to Acetaminophen 3x, Bolus dose (mice; for a 70 kg human): 2.8 mg
Analgesic Equivalent to Acetaminophen 3x, Maintenance dose (mice; for a 70 kg human): 23 mg/h
dose achieving 100% MPE, writhing assay (mice; intravenous bolus): approximately 0.5 mg/kg
dose dependence of the level of analgesia (mice; mouse writhing assay): dose dependent
Analgesic Equivalent to Acetaminophen 1x, Bolus dose (mice; mouse, in vivo, iv): 0.01 mg/kg
IC50 (A3 agonist-Adenosine A3): 2600 nM
inhibition at 10 µM (A3 agonist-Adenosine A3; A3 agonist-Adenosine A3, 10 uM): 64%
solubility in water (Solubility in water): very slightly soluble
% Inhibition @10 uM (Dopamine/D3): 25%
inhibition at 10 µM [3]: 15%
IC50 [4]: 5.1 µM
inhibition at 10 µM (Melanocortin/MC4): 0%
% Inhibition @10 uM (GABA/GABAA): 11%
